Measurements as given in patent publication US11213512B2, “Bis-amino acid based compound and use thereof” (THE CURATORS OF THE UNIVERSITY OF MISSOURI, priority 2016, dated 2022).

Assays:
[1] = tested on: Cos-7 cells; experiment: Cytotoxicity to mammalian cells, XTT assay; type: cell-based, Cercopithecus aethiops; conditions: 24 h; for percent survival Cos-7: at MIC against Tet^R E. coli (2: 48, 3: 28, 5: 56, 6: 120, 7: 128, 10: 10 μM); for cytotoxicity to Cos-7 (in words): at MIC against Tet^R E. coli (2: 48, 7: 128, 10: 10 μM); for survival of Cos-7 (in words): two-fold increase over MIC / highest concentrations tested
Experimental: It was initially hypothesized that antimicrobial activity resulted from membrane disruption. Membrane active compounds are often cytotoxic to mammalian cells (Shai, Biopolymers 2002, 66, 236-48; Shai, et al., Curr. Protein Pept. Sci. 2006, 7, 479-86). The survival of three mammalian epithelial cell lines was assayed for 2, 3, 5, and 10. […] The cell lines studied were human embryonic kidney (HEK-293), human cervix epithelial (HeLa, ATCC Accession No. CCL-2), and Cercopithecus aethiops kidney (Cos-7, ATCC Accession No. CRL 1651). HeLa cells were acquired from ATCC. Cos-7 and HEK-293 cells were donated by colleagues. Cell lines were regularly maintained in growth media containing DMEM (ATCC), 10% fetal bovine serum (FBS, ATCC) and 1% penicillin-streptomycin solution (ATCC). Adherent HEK-293, HeLa and Cos-7 cells were trypsinized using 0.25% (w/v) trypsin-EDTA (Sigma-Aldrich), suspended in a fresh media and diluted to get a concentration of 3×10^5 cells/ml. Cells were seeded in a 96-well plate (100 μL/well) to get 3×10^4 cells/well. The plates were incubated for 24 hours at 5% CO2 and 37° C. to reach a confluency of 80-90%.
In a sterile 1.5 mL micro-centrifuge tube, compounds 2, 3, 5, 6, 7 and 10 (0.5% DMSO) were mixed with assay media (DMEM+10% FBS) and serially diluted by 2-fold each to get 2[MIC], [MIC], ½[MIC] and ¼ [MIC] concentrations. A control containing 0.5% DMSO was also prepared. After 24 hours, the spent media in the 96-well plate containing HEK-293, HeLa and Cos-7 cells (90% confluency) was replaced with 100 μL media containing the compounds 2, 3, 5, 6, 7 and 10 at various concentrations. The cells were incubated at 37° C. and 5% CO2 for 24 hours before performing XTT assay (Sigma-Aldrich). The XTT assay was performed according to the manufacturer's protocol. After 24 hours of treatment with compounds, the media was replaced with PBS and 25 μL XTT was added to each well. The XTT assay works by the reduction of tetrazolium compound by alive cells to the colored soluble formazan product. The absorbance of the product was measured at 450 nm (XTT) and 690 nm (background). Percent survival was calculated by comparing the average absorbance of cells treated with compounds 2, 3, 5, 6, 7, and 10 to that of cells alone. Two replicates for each treatment were determined. Average percent survival and standard deviation were calculated.
Cells were cultured for 24 h in 96-well plates and treated with media containing concentrations using [MIC] and [MIC]×2 determined previously for Tet^R E. coli. The number of surviving cells was determined using an XTT assay (Sigma-Aldrich); the results are represented as percent survival in FIG. 2. Cells alone were used as controls and established 100% survival. The data represent two replicates of three trials and the error bars represent the standard deviation.

[2] = tested on: Tet^R E. coli; experiment: MIC, CLSI/NCCLS broth microdilution; type: cell-based, Escherichia coli; conditions: 24 h; for Minimal Inhibitory Concentration (MIC) E. coli Tet^R: >80% growth inhibition, 37° C., substance alone; for MIC: Escherichia coli, read-out: Minimal Inhibitory Concentration (MIC) E. coli Tet^R
Experimental: (§1) Two different strains of E. coli (Gram-negative) were used. The laboratory strain of E. coli, K-12 (ATCC Accession No. 700926), was used for preliminary MIC determinations. The tetracycline resistant strain of E. coli (Tet^R) was prepared by transforming competent JM109 E. coli (Promega) with the pBR322 plasmid (Carolina Biologicals) using the manufacturers protocol. This plasmid contains two resistance genes: the tetA gene expresses the tetracycline resistance TetA efflux pump (Sapunaric and Levy, Microbiol. 2005, 151, 2315-2322) and the amp^R gene expresses a β-lactamase enzyme (Bolivar, et al; Gene 1977, 2, 95-113) that cleaves the four membered ring of penicillin derivatives. The resulting E. coli, which we designate Tet^R E. coli, is both tetracycline and ampicillin resistant. The TetA efflux pump belongs to the major facilitator superfamily (MFS), spans the cytoplasmic membrane, and transports tetracycline from the cell cytoplasm to the periplasmic space (Thanassi, et al., J. Bacteriol. 1995, 177, 998-1007). This active efflux utilizes the proton gradient as an energy source (Levy, Antimicrob. Agents Chemother. 1992, 36, 695-703). One Gram-positive strain, S. aureus (ATCC Accession No. 29213), used for MIC study expresses the MFS type NorA efflux pump and is methicillin sensitive. MFS type efflux pumps are clinically relevant for resistance in both Gram-positive and Gram-negative bacteria (Sun, et al., Biochem. Biophys. Res. Commun. 2014, 453, 254-267). A Staphylococcus aureus 1199B strain that overexpresses the NorA efflux pump was also used to conduct checkerboard experiments (see, Example 8 below). This strain of S. aureus 1199B is resistant to both norfloxacin and ethidium bromide.
(§2) K-12 E. coli and S. aureus were acquired from ATCC. The S. aureus strain was used in the BSL-2 facility. K-12 E. coli was grown in L. B. Miller media (Sigma-Aldrich) and S. aureus was grown in cation adjusted MHII media (Sigma-Aldrich). Tet^R E. coli was grown in L. B. Miller media containing 100 μg/mL Ampicillin.
(§3) MIC experiments were performed as described in the Clinical and Laboratory Standards Institute (CLSI) standard microdilution protocols. Bacteria was grown overnight from one CFU in media without antibiotics. Tet^R E. coli was grown in media containing 100 μg/mL Ampicillin. On the day of experiment, bacteria were knocked back to O.D. 600 nm=0.550 in the same media. These exponential phase bacteria were then diluted in antibiotics-free media to get […]. In a 96-well plate either L. B. Miller or MHII media was added followed by serially diluted compounds 1-11, tetracycline, or ampicillin. All the tryptophan based compounds were dissolved in DMSO and the final concentration of DMSO in each well was kept constant at 0.5% (v/v).
(§4) For the combination experiments, first, the BT or control was added to the media in the well followed by the antibiotics. The contents of the well were mixed before adding 20 μL of bacteria to get 4×10^5 CFU/mL per well. The plates were incubated at 37° C., 200 RPM for 24 hours before collecting results on the Biotek Cytation 3 plate reader. No more than three plates were stacked on top of each other at a time. Optical density of the wells was determined at λ=600 nm. Cells alone were considered as 0% inhibition and media alone was considered as 100% inhibition. Any inhibition greater than 80% was considered as the MIC. The results were reproduced three times before reporting.
(§5) All minimum inhibitory concentration (MIC) values for compounds 1-11 were determined according to the methods prescribed by the National Committee for Clinical Laboratory Standards (NCCLS, Methods for Dilution Antimicrobial Susceptibility Tests for Bacteria that grow aerobically; National Committee for Clinical Laboratory Standards 2000, 5th Edition, M7-A5). […]

[3] = tested on: E. coli K12; experiment: MIC, CLSI/NCCLS broth microdilution; type: cell-based, Escherichia coli; conditions: Escherichia coli, K12, 24 h, read-out: Minimal Inhibitory Concentration (MIC) E. coli K12
Experimental: as §1, §2, §3, §4, §5

With `Cl.Cl.N[C@H](Cc1c[nH]c2ccccc12)C(=O)Nc1cccc(NC(=O)[C@H](N)Cc2c[nH]c3ccccc23)c1` [Compound 3, (2R,2′R)-1,1′-(1,3-Phenylenebis(azanediyl))bis(3-(1H-indol-3-yl)-1-oxopropan-2-aminium) chloride] the “percent survival Cos-7” value [1] was 100%, the “Minimal Inhibitory Concentration (MIC) E. coli Tet^R” value [2] was 28 ± 4 µM and the MIC [2] was 28 ± 4 µM. The MIC [3] was 64 µM.

`Cl.Cl.N[C@@H](Cc1c[nH]c2ccccc12)C(=O)Nc1cccc(NC(=O)[C@@H](N)Cc2c[nH]c3ccccc23)c1` [Compound 2, (2S,2′S)-1,1′-(1,3-Phenylenebis(azanediyl))bis(3-(1H-indol-3-yl)-1-oxopropan-2-aminium) chloride] was tested, and the “percent survival Cos-7” value [1] was 100%, the “cytotoxicity to Cos-7 (in words)” value [1] was “no cytotoxicity” and the “survival of Cos-7 (in words)” value [1] was “unaffected”. The “Minimal Inhibitory Concentration (MIC) E. coli Tet^R” value [2] was 48 ± 8 µM, the MIC [2] was 48 ± 8 µM and the MIC [3] was 64 µM.

For `Cl.Cl.N[C@H](Cc1c[nH]c2ccccc12)C(=O)NCCCCCCCCCCCCNC(=O)[C@@H](N)Cc1c[nH]c2ccccc12` [Compound 10, (S)-1-((12-((R)-2-Ammonio-3-(1H-indol-3-yl)propanamido)dodecyl)amino)-3-(1H-indol-3-yl)-1-oxopropan-2-aminium chloride], the “cytotoxicity to Cos-7 (in words)” value [1] was “minimally toxic”, the MIC [2] was 10 ± 2 µM and the MIC [3] was 8 µM.

`Cl.Cl.N[C@@H](Cc1c[nH]c2ccccc12)C(=O)NCCCNC(=O)[C@@H](N)Cc1c[nH]c2ccccc12` [Compound 7, (2S,2′S)-1,1′-(Propane-1,3-diylbis(azanediyl))bis(3-(1H-indol-3-yl)-1-oxopropan-2-aminium) chloride] was tested, and the “cytotoxicity to Cos-7 (in words)” value [1] was “minimally toxic”, the MIC [2] was > 128 µM and the MIC [3] was > 128 µM.

In the case of `Cl.Cl.N[C@@H](Cc1c[nH]c2ccccc12)C(=O)Nc1ccc(NC(=O)[C@@H](N)Cc2c[nH]c3ccccc23)cc1` [Compound 6, (2S,2′S)-1,1′-(1,4-Phenylenebis(azanediyl))bis(3-(1H-indol-3-yl)-1-oxopropan-2-aminium) chloride], the “percent survival Cos-7” value [1] is reported as 100%, the MIC [2] is reported as 120 ± 14 µM and the MIC [3] is reported as 128 µM.

`Cl.Cl.N[C@@H](Cc1c[nH]c2ccccc12)C(=O)Nc1ccccc1NC(=O)[C@@H](N)Cc1c[nH]c2ccccc12` [Compound 5, (2S,2′S)-1,1′-(1,2-Phenylenebis(azanediyl))bis(3-(1H-indol-3-yl)-1-oxopropan-2-aminium) chloride] was tested, and the “percent survival Cos-7” value [1] was 100%, the “survival of Cos-7 (in words)” value [1] was “unaffected” and the MIC [2] was 56 ± 8 µM. It also gave an MIC [3] of 64 µM.
